From patent US20230390287A1, “MODULATORS OF PD-L1/PD-1 INTERACTION AND USES THEREOF” (Ramot at Tel-Aviv University Ltd., priority 2021, published 2023)

What was measured:
PD-1/PD-L1 interaction = PD-1/PD-L1 interaction (Homo sapiens (Human), UniProt Q9NZQ7); assay: HTRF PD-1/PD-L1 binding assay; format: biochemical; set-up: key to HTF assay (100 μM): +: positive compounds using 100 μM on HTRF; conditions: for HTF assay (100 μM): compounds at 100 μM, hits defined as at least 50% inhibition of PD-1/PD-L1 interaction; for dose-response effect in HTRF: 8 doses starting from 100 μM
Sequence of PD-1/PD-L1 interaction (Q9NZQ7 19-238): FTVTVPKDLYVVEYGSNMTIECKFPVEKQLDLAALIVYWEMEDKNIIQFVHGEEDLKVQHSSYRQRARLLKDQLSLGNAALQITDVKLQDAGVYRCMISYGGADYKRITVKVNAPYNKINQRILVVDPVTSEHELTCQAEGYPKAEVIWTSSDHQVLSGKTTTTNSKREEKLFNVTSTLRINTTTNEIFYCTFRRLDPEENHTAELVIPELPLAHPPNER

recombinant human PD-L1 = recombinant human PD-L1 (Homo sapiens (Human), UniProt Q9NZQ7); assay: Differential scanning fluorimetry (DSF) thermal denaturation; format: binding; conditions: for thermal shift / stabilization of PD-L1: 100 μM compound, 1% DMSO
Sequence of recombinant human PD-L1 (Q9NZQ7 19-238): as above
Experimental: DSF was performed in a C1000 Touch thermal cycler equipped with a CFX96 optical reaction module (Bio Rad). For all fluorescence measurements, samples contained recombinant human PD-L1 (ThermoFisher) at 500 μg/ml in phosphate buffered saline (PBS), pH 7.4, 5% (m/v) Mannitol, 5% (m/v) Trehalose, 0.02% (v/v) Tween® 80, 2.5-fold SYPRO® Orange, 1% (v/v) DMSO (Sigma-Aldrich) and 100 μM of each compound. The PCR plate was sealed with Optical-Quality Sealing Tape (Bio-Rad) and centrifuged at 300 g for 5 minutes. The DSF assay was carried out by increasing the temperature from 20 to 90° C., with a 1 second hold time every 0.2° C. and fluorescence acquisition using the FRET channel, after an initial incubation step of 10 minutes at 20° C. Control experiments in the absence of DMSO and/or compounds were routinely performed in each microplate.
Data were processed using CFX Manager Software V3.0 (Bio-Rad) and the GraphPad Prism 7. Temperature scan curves were fitted to a dose-response sigmoid function (Boltzmann equation) and the melting temperature (Tm values) were obtained from the midpoint of the transition. Normalization of the RFU was also performed to prevent distraction due to different maximum and minimum values upon compounds treatment. The RFU values from different data sets were converted to a common scale 0-1, where 0 represents the fluorescence of the native protein and 1 the fluorescence of the denatured protein. To monitor the binding properties towards each compound, DSF assays were run in the absence and presence of 100 μM compounds using 1% (v/v) DMSO as vehicle control.
To test this hypothesis, the melting temperature (Tm) of the PD-L1 was determined in thermal denaturation assays by differential scanning fluorimetry (DSF) and checked for a shift in the proteins' Tm (ΔTm) in the presence of the PD-L1 inhibitor candidates. The extent of temperature shift is proportional to the compounds' stabilizing effect and thereby used to infer inhibitors' affinity.

[1] = Compound stability (no method given); format: physicochemical
MDA-MB-231 cells = assay: MTT cell viability, MDA-MB-231; format: cell-based, human; conditions: 1, 10, 100 μM, 48 hours
Experimental: (§1) For the MTT assays, cells were seeded in 96-multi-well plate at a concentration of 7,000 cells per well. Six hours after seeding, cells were treated with the compounds and DMSO as a negative control. Forty-eight hours after the addition of the compounds, 20 μl of MTT (Sigma-Aldrich) dissolved in 5 mg/ml of PBS were added to each well and incubated for 2 hours at 37° C. Solutions were removed, and 100 μl of DMSO were added to each well and gently mixed on a shaker. The absorbance of control and treated wells was read against a DMSO blank at 570 nm using an Epoch micro-plate reader (Biotek). Each hit compound was tested in three replicates, in three independent experiments.
(§2) Human breast cancer MDA-MB-231 and melanoma A375 cells were exposed to increasing concentrations (1, 10, and 100 μM) of selected compounds for 48 hours. Cell viability was normalized to untreated cells. Three different concentrations 100 μM (blue), 10 μM (green) and 1 μM (gray) were tested. Data are presented as mean±SD, N=3, n=3 and N=1, n=3, from three or one independent experiment(s) performed in triplicate.

A375 cells = assay: MTT cell viability, A375; format: cell-based, human; conditions: 1, 10, 100 μM, 48 hours
Experimental: as §1, §2

[2] = tested on: PD-1/PD-L1 interaction on MDA-MB-231 cells; assay: Cell-based PD-1/PD-L1 inhibition (accessible PD-L1 by flow cytometry), MDA-MB-231; set-up: species or system human; conditions: 10 μM, 72 hours
Experimental: (§3) PD-1/PD-L1 Inhibition on Human Melanoma and Breast Cancer Cell Lines:
(§4) Cells (0.1×10^6 cells) were tested for PD-1/PD-L1 inhibition by co-incubation of hit compounds, DMSO (background), BMS-202 (Selleckchem) and anti-human PD-L1 (BioxCell, Clone 29E.2A3) (positive controls) for 72 hours in 2 ml DMEM medium. Non-confluent cell cultures were scraped into single-cell suspension, washed with PBS, and counted. Cells were subsequently stained with PD-1 fluorescent proxy for 30 minutes at 4° C., washed twice and resuspended in FACS buffer. Cells were analyzed using BD LSRFortessa (BD Biosciences) and data analyzed with FlowJo software for Mac (FlowJo, LLC 2013-2016). Mean fluorescence intensity (MFI) was derived from each sample. The PD-1/PD-L1 inhibition in cells was measured by a decrease in MFI relative to background.
The selected cell lines were incubated with the selected compounds to assess compound-binding affinities, and consequently PD-1/PD-L1 inhibition. The levels of remaining accessible PD-L1 in these cells were evaluated by FACS analysis using a fluorescence PD-1 proxy. To understand compound activity, different incubation times (24, 48 and 72 hours) were evaluated on MDA-MB-231 breast cancer cell line.
(§5) The remaining accessible PD-L1 was determined by flow cytometry.

[3] = tested on: PD-1/PD-L1 interaction on A375 cells; assay: Cell-based PD-1/PD-L1 inhibition (accessible PD-L1 by flow cytometry), A375; set-up: species or system human; conditions: A375 stimulated with IFN-γ; 10 μM; 72 hours
Experimental: as §3, §4, §5

[4] = HTRF dose-response starting from 100 μM
[5] = Table A, HTRF dose-response, NA = Not applicable (No dose-response effect)
[6] = Table B, HTRF dose-response, NA = no dose-response effect

CCCCCCCCSc1nc2ccc(/N=C\c3ccccc3O)cc2s1 [Compound 42]
IC50 (PD-1/PD-L1 interaction; [4]): 57 nM | IC50 (PD-1/PD-L1 interaction; [5]): 57 nM | IC50 (PD-1/PD-L1 interaction; [6]): 57 nM | HTF assay (100 μM) (PD-1/PD-L1 interaction): + | thermal shift / stabilization of PD-L1 (recombinant human PD-L1): stabilization of PD-L1

N#Cc1nc(CC(=O)/C=C/c2ccccc2)c(CC(=O)/C=C/c2ccccc2)nc1C#N [Compound 18]
IC50 (PD-1/PD-L1 interaction; [4]): 190 nM | IC50 (PD-1/PD-L1 interaction; [5]): 190 nM | IC50 (PD-1/PD-L1 interaction; [6]): 190 nM | HTF assay (100 μM) (PD-1/PD-L1 interaction): + | stability of compound [1]: stability issues

O=C(c1ccc(-c2ccccc2)cc1)c1nc(-c2ccc(-c3ccccc3)cc2)c[nH]1 [Compound 73]
IC50 (PD-1/PD-L1 interaction; [4]): 149 nM | IC50 (PD-1/PD-L1 interaction; [5]): 149 nM | IC50 (PD-1/PD-L1 interaction; [6]): 149 nM | HTF assay (100 μM) (PD-1/PD-L1 interaction): + | interference with the fluorescence-dye in DSF (recombinant human PD-L1): revealed to interfere | toxicity (cell viability, MTT) (MDA-MB-231 cells): toxicity higher or similar to that obtained for BMS202 | toxicity (cell viability, MTT) (A375 cells): toxicity higher or similar to that obtained for BMS202

COc1ccc(-c2nc(N)nc(-c3cc(C)ccc3O)c2Cl)cc1 [Compound 45]
IC50 (PD-1/PD-L1 interaction; [4]): 596 nM | IC50 (PD-1/PD-L1 interaction; [5]): 596 nM | IC50 (PD-1/PD-L1 interaction; [6]): 596 nM | HTF assay (100 μM) (PD-1/PD-L1 interaction): +

CCN(CC)CCNc1nc(NCCN(CC)CC)c2nc(-c3ccccc3)c(-c3ccccc3)nc2n1 [Compound 1]
IC50 (PD-1/PD-L1 interaction; [4]): 186 nM | IC50 (PD-1/PD-L1 interaction; [5]): 186 nM | IC50 (PD-1/PD-L1 interaction; [6]): 186 nM | HTF assay (100 μM) (PD-1/PD-L1 interaction): + | interference with the fluorescence-dye in DSF (recombinant human PD-L1): revealed to interfere | toxicity (cell viability, MTT) (MDA-MB-231 cells): toxicity higher or similar to that obtained for BMS202 | toxicity (cell viability, MTT) (A375 cells): toxicity higher or similar to that obtained for BMS202

COc1nc(OCc2cccc(-c3ccccc3)c2C)ccc1CNCCNC(C)=O [BMS202, reference compound]
toxicity (cell viability, MTT) (MDA-MB-231 cells): higher toxicity at the highest concentration | toxicity (cell viability, MTT) (A375 cells): higher toxicity at the highest concentration | impact on PD-L1 accessibility / PD-1/PD-L1 interaction [2]: did not exhibit a significant impact | impact on PD-L1 accessibility / PD-1/PD-L1 interaction [3]: did not exhibit a significant impact

CN1CCN(S(=O)(=O)c2ccc(-c3ccc4c(Nc5ccc6nn[nH]c6c5)ccnc4c3)cc2)CC1 [Compound 29]
IC50 (PD-1/PD-L1 interaction; [4]): 4000 nM | IC50 (PD-1/PD-L1 interaction; [5]): 4000 nM | IC50 (PD-1/PD-L1 interaction; [6]): 4000 nM | HTF assay (100 μM) (PD-1/PD-L1 interaction): + | stability of compound [1]: stability issues

CC(C)(C)OC(=O)N1CCN(c2cc(-c3ccc(Oc4ccccc4)cc3)n[nH]2)CC1 [Compound 30]
dose-response effect in HTRF (PD-1/PD-L1 interaction): no dose-response was observed | HTF assay (100 μM) (PD-1/PD-L1 interaction): +

CC1CCCCN1C(=O)NCCc1coc(-c2ccc(F)cc2)n1 (stereo not drawn) [Compound 32]
dose-response effect in HTRF (PD-1/PD-L1 interaction): no dose-response was observed | HTF assay (100 μM) (PD-1/PD-L1 interaction): +

Cc1cc(C)nc(NS(=O)(=O)c2ccc(NC(=O)c3cccnc3Nc3cccc(Cl)c3)cc2)n1 [Compound 75]
IC50 (PD-1/PD-L1 interaction; [4]): 1550 nM | IC50 (PD-1/PD-L1 interaction; [5]): 1550 nM | IC50 (PD-1/PD-L1 interaction; [6]): 1550 nM | HTF assay (100 μM) (PD-1/PD-L1 interaction): + | thermal shift / stabilization of PD-L1 (recombinant human PD-L1): stabilization of PD-L1 | toxicity (cell viability, MTT) (MDA-MB-231 cells): toxicity higher or similar to that obtained for BMS202 | toxicity (cell viability, MTT) (A375 cells): toxicity higher or similar to that obtained for BMS202

CN(C)CCNC(=O)N1CCCN(c2ncnc3cc(-c4ccccc4)sc23)CC1 [Compound 35]
dose-response effect in HTRF (PD-1/PD-L1 interaction): no dose-response was observed | HTF assay (100 μM) (PD-1/PD-L1 interaction): +

Cc1nc(C)c(C(=O)NNC(=O)Cc2ccccc2)cc1C(=O)NNC(=O)Cc1ccccc1 [Compound 84]
IC50 (PD-1/PD-L1 interaction; [4]): 1090 nM | IC50 (PD-1/PD-L1 interaction; [5]): 1090 nM | IC50 (PD-1/PD-L1 interaction; [6]): 1090 nM | HTF assay (100 μM) (PD-1/PD-L1 interaction): + | thermal shift / stabilization of PD-L1 (recombinant human PD-L1): stabilization of PD-L1

O=C(NC1CC1)c1ccc(N2CCC(Cc3ccccc3)CC2)nc1 [Compound 38]
dose-response effect in HTRF (PD-1/PD-L1 interaction): no dose-response was observed | HTF assay (100 μM) (PD-1/PD-L1 interaction): +

COc1ccc(-c2nc(N)nc(-c3cc(C)ccc3OC)c2Cl)cc1 [Compound 5]
IC50 (PD-1/PD-L1 interaction; [4]): 2440 nM | IC50 (PD-1/PD-L1 interaction; [5]): 2440 nM | IC50 (PD-1/PD-L1 interaction; [6]): 2440 nM | HTF assay (100 μM) (PD-1/PD-L1 interaction): + | thermal shift / stabilization of PD-L1 (recombinant human PD-L1): stabilization of PD-L1

CC1(C)OCC(C2OC3OC(C)(C)OC3C2NNC(=O)c2cc3cc(OCc4ccccc4)ccc3[nH]2)O1 (stereo not drawn) [Compound 71]
IC50 (PD-1/PD-L1 interaction; [4]): 380 nM | IC50 (PD-1/PD-L1 interaction; [5]): 380 nM | IC50 (PD-1/PD-L1 interaction; [6]): 380 nM | HTF assay (100 μM) (PD-1/PD-L1 interaction): + | interference with the fluorescence-dye in DSF (recombinant human PD-L1): revealed to interfere

Cc1cc(SCC(=O)c2ccc3c(ccc4ccccc43)c2)cc(C)[o+]1.[Br-] [Compound 47]
IC50 (PD-1/PD-L1 interaction; [4]): 149 nM | IC50 (PD-1/PD-L1 interaction; [5]): 149 nM | IC50 (PD-1/PD-L1 interaction; [6]): 149 nM | HTF assay (100 μM) (PD-1/PD-L1 interaction): + | thermal shift / stabilization of PD-L1 (recombinant human PD-L1): stabilization of PD-L1
